Reference: ChEMBL document CHEMBL3885881, “DrugMatrix”

Species on record: Rattus norvegicus
Assay: DrugMatrix - Regimen: Daily Repeat
Format: toxicity, organism-based, Sprague-Dawley
Parameters: regimen Daily Repeat, gender Male, age 6-8 weeks
Settings: in vivo, po, route oral GAVAGE, […]; for ABSOLUTE BASOPHIL / ABSOLUTE EOSINOPHIL / ABSOLUTE LYMPHOCYTE / ABSOLUTE MONOCYTE / ABSOLUTE SEGMENTED NEUTROPHIL / BASOPHIL / EOSINOPHIL / ERYTHROCYTE COUNT / HEMATOCRIT / HEMOGLOBIN / LEUKOCYTE COUNT / LYMPHOCYTE / MEAN CORPUSCULAR HEMOGLOBIN / MEAN CORPUSCULAR HEMOGLOBIN CONCENTRATION / MEAN CORPUSCULAR VOLUME / MONOCYTE / NEUTROPHIL / NUCLEATED RED BLOOD CELLS / PLATELET COUNT: tissue Blood
[1] = 0 mg/kg, 72 h, dose level Control, time 3 day
[2] = 0 mg/kg, 72 h, tissue Plasma, dose level Control, time 3 day
[3] = 0 mg/kg, 120 h, dose level Control, time 5 day
[4] = 0 mg/kg, 120 h, tissue Plasma, dose level Control, time 5 day
[5] = 0.3 mg/kg, 72 h, dose level Low, time 3 day
[6] = 0.3 mg/kg, 72 h, tissue Plasma, dose level Low, time 3 day

In the case of `C[C@]12CC[C@@H]3c4ccc(O)cc4CC[C@H]3[C@@H]1CC[C@@H]2O` [ESTRADIOL], the “ABSOLUTE BASOPHIL” value [1] was 0 CELLS/uL, the “ABSOLUTE EOSINOPHIL” value [1] was 41.83 CELLS/uL and the “ABSOLUTE LYMPHOCYTE” value [1] was 8545.5 CELLS/uL. The “ABSOLUTE MONOCYTE” value [1] was 240 CELLS/uL, the “ABSOLUTE SEGMENTED NEUTROPHIL” value [1] was 906 CELLS/uL and the BASOPHIL [1] was 0%. The EOSINOPHIL [1] was 0.33%, the “ERYTHROCYTE COUNT” value [1] was 5.6 x10E6/uL and the HEMATOCRIT [1] was 35.4%. For the same molecule, the HEMOGLOBIN [1] was 13.42 G/DL, the “LEUKOCYTE COUNT” value [1] was 9.73 x10E3/uL and the LYMPHOCYTE [1] was 87.83%. For the same molecule, the “MEAN CORPUSCULAR HEMOGLOBIN” value [1] was 23.98 pg, the “MEAN CORPUSCULAR HEMOGLOBIN CONCENTRATION” value [1] was 37.92 G/DL and the “MEAN CORPUSCULAR VOLUME” value [1] was 63.3 fL. For the same molecule, the MONOCYTE [1] was 2.5%, the NEUTROPHIL [1] was 9.33% and the “NUCLEATED RED BLOOD CELLS” value [1] was 0 /100WBC. The “PLATELET COUNT” value [1] was 1032 x10E3/uL, the “ALANINE AMINOTRANSFERASE” value [2] was 72.83 u/L and the ALBUMIN [2] was 4 G/DL. For the same molecule, the “ALKALINE PHOSPHATASE” value [2] was 322.83 u/L, the “ASPARTATE AMINOTRANSFERASE” value [2] was 102.67 u/L and the “BLOOD UREA NITROGEN” value [2] was 12 mg/dL. The “CARBON DIOXIDE” value [2] was 34.33 mmol/L, the CHLORIDE [2] was 97.67 MEQ/L and the CHOLESTEROL [2] was 82.5 mg/dL. For the same molecule, the “CREATINE PHOSPHOKINASE” value [2] was 410.33 u/L, the CREATININE [2] was 0.18 mg/dL and the GLUCOSE [2] was 164.5 mg/dL. For the same molecule, the “LACTATE DEHYDROGENASE” value [2] was 119.5 u/L, the LIPASE [2] was 11.83 u/L and the PHOSPHORUS [2] was 9.52 mg/dL. The POTASSIUM [2] was 5.56 MEQ/L, the SODIUM [2] was 142.48 MEQ/L and the “TOTAL BILIRUBIN” value [2] was 0.18 mg/dL. The “TOTAL PROTEIN” value [2] was 5.77 G/DL, the “URIC ACID” value [2] was 0.48 mg/dL and the “ABSOLUTE BASOPHIL” value [3] was 0 CELLS/uL. The “ABSOLUTE EOSINOPHIL” value [3] was 0 CELLS/uL, the “ABSOLUTE LYMPHOCYTE” value [3] was 9065 CELLS/uL and the “ABSOLUTE MONOCYTE” value [3] was 341.33 CELLS/uL. For the same molecule, the “ABSOLUTE SEGMENTED NEUTROPHIL” value [3] was 527 CELLS/uL, the BASOPHIL [3] was 0% and the EOSINOPHIL [3] was 0%. The “ERYTHROCYTE COUNT” value [3] was 5.25 x10E6/uL, the HEMATOCRIT [3] was 34.08% and the HEMOGLOBIN [3] was 13.5 G/DL. The “LEUKOCYTE COUNT” value [3] was 9.93 x10E3/uL, the LYMPHOCYTE [3] was 91.17% and the “MEAN CORPUSCULAR HEMOGLOBIN” value [3] was 25.7 pg. The “MEAN CORPUSCULAR HEMOGLOBIN CONCENTRATION” value [3] was 39.62 G/DL, the “MEAN CORPUSCULAR VOLUME” value [3] was 64.93 fL and the MONOCYTE [3] was 3.33%. For the same molecule, the NEUTROPHIL [3] was 5.5%, the “NUCLEATED RED BLOOD CELLS” value [3] was 0 /100WBC and the “PLATELET COUNT” value [3] was 1077.5 x10E3/uL. The “ALANINE AMINOTRANSFERASE” value [4] was 57.83 u/L, the “ALKALINE PHOSPHATASE” value [4] was 319.17 u/L and the “ASPARTATE AMINOTRANSFERASE” value [4] was 83.33 u/L. The “BLOOD UREA NITROGEN” value [4] was 13.67 mg/dL, the “CARBON DIOXIDE” value [4] was 30.83 mmol/L and the CHLORIDE [4] was 98.33 MEQ/L. For the same molecule, the CHOLESTEROL [4] was 64.83 mg/dL, the “CREATINE PHOSPHOKINASE” value [4] was 263.67 u/L and the CREATININE [4] was 0.2 mg/dL. For the same molecule, the GLUCOSE [4] was 182.83 mg/dL, the “LACTATE DEHYDROGENASE” value [4] was 124 u/L and the LIPASE [4] was 10.5 u/L. For the same molecule, the PHOSPHORUS [4] was 10 mg/dL, the POTASSIUM [4] was 5.78 MEQ/L and the SODIUM [4] was 142.48 MEQ/L. The “TOTAL BILIRUBIN” value [4] was 0.2 mg/dL, the “TOTAL PROTEIN” value [4] was 6 G/DL and the “URIC ACID” value [4] was 0.7 mg/dL. The “ABSOLUTE BASOPHIL” value [5] was 0 CELLS/uL, the “ABSOLUTE EOSINOPHIL” value [5] was 0 CELLS/uL and the “ABSOLUTE LYMPHOCYTE” value [5] was 8342 CELLS/uL. For the same molecule, the “ABSOLUTE MONOCYTE” value [5] was 154.33 CELLS/uL, the “ABSOLUTE SEGMENTED NEUTROPHIL” value [5] was 637 CELLS/uL and the BASOPHIL [5] was 0%. For the same molecule, the EOSINOPHIL [5] was 0%, the “ERYTHROCYTE COUNT” value [5] was 5.44 x10E6/uL and the HEMATOCRIT [5] was 33.83%. For the same molecule, the HEMOGLOBIN [5] was 13.07 G/DL, the “LEUKOCYTE COUNT” value [5] was 9.13 x10E3/uL and the LYMPHOCYTE [5] was 91.67%. The “MEAN CORPUSCULAR HEMOGLOBIN” value [5] was 24.07 pg, the “MEAN CORPUSCULAR HEMOGLOBIN CONCENTRATION” value [5] was 38.63 G/DL and the “MEAN CORPUSCULAR VOLUME” value [5] was 62.23 fL. For the same molecule, the MONOCYTE [5] was 1.67%, the NEUTROPHIL [5] was 6.67% and the “NUCLEATED RED BLOOD CELLS” value [5] was 0 /100WBC. The “PLATELET COUNT” value [5] was 824 x10E3/uL, the “ALANINE AMINOTRANSFERASE” value [6] was 57.33 u/L and the “ALKALINE PHOSPHATASE” value [6] was 430 u/L. The “ASPARTATE AMINOTRANSFERASE” value [6] was 82.67 u/L, the “BLOOD UREA NITROGEN” value [6] was 13.67 mg/dL and the “CARBON DIOXIDE” value [6] was 34 mmol/L. For the same molecule, the CHLORIDE [6] was 97.67 MEQ/L, the CHOLESTEROL [6] was 68 mg/dL and the “CREATINE PHOSPHOKINASE” value [6] was 290.33 u/L. For the same molecule, the CREATININE [6] was 0.16 mg/dL, the GLUCOSE [6] was 175 mg/dL and the “LACTATE DEHYDROGENASE” value [6] was 124 u/L. It also gave an LIPASE [6] of 11 u/L, a PHOSPHORUS [6] of 9.93 mg/dL and a POTASSIUM [6] of 5.76 MEQ/L. For the same molecule, the SODIUM [6] was 142.13 MEQ/L, the “TOTAL BILIRUBIN” value [6] was 0.23 mg/dL and the “URIC ACID” value [6] was 0.37 mg/dL.
